Results on 29 compounds are retold here after US20260285857A1, “BICYCLIC AND HETEROCYCLIC AMIDE COMPOUNDS” (priority 2024, published 2026).

SMILES strings stand for the structures.

The first experiment concerns immunoglobulin light chain protein WIL-FL T46L. The experiment in a line: Differential scanning fluorimetry (thermal shift) assay. Format: binding. To be noted: Table A; temperature shift [Tm]compound-[Tm]vehicle; recombinant WIL-FL T46L. (In general: In DSF a fluorescence change marks the thermal transition of the protein.)
For the compound `Cc1cc(N2CC3(CC[C@H]3c3ccccc3)C2)cn2nc(C(=O)N3CC[C@@]4(CCN(c5cccc(C(=O)O)n5)C4)C3)nc12` [Compound 24A, Lithium 6-((R)-7-(8-methyl-6-((S)-5-phenyl-2-azaspiro[3.3]heptan-2-yl)-[1,2,4]triazolo[1,5-a]pyridine-2-carbonyl)-2,7-diazaspiro[4.4]nonan-2-yl)picolinate], the DSF result is recorded as “***** (>2.5° C.=*****)”.
The same measure, in the same setting: for `Cc1cc(N2CC[C@](C)(c3ccccc3)C2)cn2nc(C(=O)N[C@H](CO)C(C)C)nc12` [Compound 206] the value was “***** (>2.5° C.=*****)”.
Same read-out and setting: then `Cc1cc(N2CC[C@](C)(c3ccccc3)C2)cn2nc(C(=O)NC3CC4(C3)CC(N3C[C@H](F)[C@@H](F)C3)C4)nc12` (some centres unmarked) [Compound 363], with “***** (>2.5° C.=*****)”; and `Cc1cc(N2CC[C@](C)(c3ccccc3)C2)cn2nc(C(=O)NC3COCC3(C)C(=O)O)nc12` (some centres unmarked) [Compound 180], with “***** (>2.5° C.=*****)”.
The same measure, in the same setting: then `Cc1cc(N2CC[C@](C)(c3ccccc3)C2)cn2nc(C(=O)NCC3(O)CCOCC3)nc12` [Compound 116], with “***** (>2.5° C.=*****)”.
For the compound `Cc1ncn(CC23CC(C(=O)O)(C2)C(c2nc4c(C)cc(N5CC[C@](C)(c6ccccc6)C5)cn4n2)O3)n1` (some centres unmarked) [Compound 94], the DSF result was “***** (>2.5° C.=*****)”.
Still for that read-out and setting: for `Cc1cc(N2CC[C@](C)(c3ccccc3)C2)cn2nc(C(=O)NC3CCN(c4cccc(-c5nnn[nH]5)n4)CC3)nc12` [Compound 285] the value was “***** (>2.5° C.=*****)”.
Same read-out and setting: for `Cc1cc(N2CC[C@](C)(c3ccccc3)C2)cn2nc(C(=O)NCCN3C[C@H](O)[C@@H](O)C3)nc12` [Compound 119] the value was “***** (>2.5° C.=*****)”; for `COC(=O)[C@]1(C)CCN(C(=O)c2nc3c(C)cc(N4CC[C@](C)(c5ccccc5)C4)cn3n2)C1` [Compound 125], “***** (>2.5° C.=*****)”.
Same read-out and setting: for `Cc1cc(N2CC[C@](C)(c3ccccc3)C2)cn2nc(C34CC(CO3)C4Cn3cc(C(=O)O)nn3)nc12` (some centres unmarked) [Compound 91] the value was “***** (>2.5° C.=*****)”.
Consider `C[C@]1(c2ccccc2)CCN(c2cc(CO)c3nc(C(=O)N[C@@H]4CCOC4)nn3c2)C1` [Compound 352], for which the DSF entry was “***** (>2.5° C.=*****)”.
As to `Cc1cc(N2CC[C@](C)(c3ccccc3)C2)cn2nc(C(=O)N3CC4CN(c5cccc(C(=O)O)n5)CC(C3)O4)nc12` [Compound 287], the DSF entry was “***** (>2.5° C.=*****)”.
`Cc1nc(C2C3COC2(c2nc4c(CO)cc(N5CC[C@](C)(c6ccccc6)C5)cn4n2)C3)n[nH]1` (some centres unmarked) [Compound 344]: the DSF entry is listed as “***** (>2.5° C.=*****)”.
On to `Cc1cc(N2CC[C@](C)(c3ccccc3)C2)cn2nc(C(=O)NC3CC4(C3)CN(c3ccnc(O)c3)C4)nc12` [Compound 223], for which the DSF result is “***** (>2.5° C.=*****)”.
Same read-out and setting: then `Cc1cc(N2CC[C@](C)(c3ccccc3)C2)cn2nc(C(=O)N3CCC4(CC3)CC(N3CC5C(C3)C5C(=O)O)CO4)nc12` (some centres unmarked) [Compound 370], with “***** (>2.5° C.=*****)”; and `Cc1cc(N2CC[C@](C)(c3ccccc3)C2)cn2nc(C34CC(CO3)C4Cn3ncnc3C)nc12` (some centres unmarked) [Compound 82], with “***** (>2.5° C.=*****)”.

Still in this experiment, the particulars now being: Table B; temperature shift [Tm]compound-[Tm]vehicle; recombinant WIL-FL T46L.
For `Cc1nc([C@H]2[C@@]3(C(C)(C)O)CO[C@]2(c2nc4c(C)cc(N5CC[C@](C)(c6ccccc6)C5)cn4n2)C3)n[nH]1` [Compound 541], the DSF result is “***** (>2.5° C.=*****)”.
On to `CCS(=O)(=O)Nc1n[nH]c(C2C3(CNC(=O)CC(C)(C)C(=O)O)COC2(c2nc4c(C)cc(N5CC[C@](C)(c6ccccc6)C5)cn4n2)C3)n1` (stereo partly drawn) [Compound 547, 4-[[5-[3-(ethylsulfonylamino)-1H-1,2,4-triazol-5-yl]-1-[8-methyl-6-[(3R)-3-methyl-3-phenyl-pyrrolidin-1-yl]-[1,2,4]triazolo[1,5-a]pyridin-2-yl]-2-oxabicyclo[2.1.1]hexan-4-yl]methylamino]-2,2-dimethyl-4-oxo-butanoic acid], for which the DSF result is recorded as “***** (>2.5° C.=*****)”.
The same measure, in the same setting: then `Cc1cc(N2CC[C@](C)(c3ccccc3)C2)cn2nc(C34CC(C(=O)NCC(=O)O)(CO3)C4)nc12` [Compound 444], with “***** (>2.5° C.=*****)”.
Still for that read-out and setting: for `Cc1cc(N2CC[C@](C)(c3ccccc3)C2)cn2nc(C(=O)NC3CC4(C3)CN(C(=O)C3CCC(C(=O)O)O3)C4)nc12` (stereo partly drawn) [Compound 596, 5-[6-[[8-methyl-6-[(3R)-3-methyl-3-phenyl-pyrrolidin-1-yl]-[1,2,4]triazolo[1,5-a]pyridine-2-carbonyl]amino]-2-azaspiro[3.3]heptane-2-carbonyl]tetrahydrofuran-2-carboxylic acid] the value was “***** (>2.5° C.=*****)”; for `Cc1cc(N2CC[C@](C)(c3ccccc3)C2)cn2nc(C(=O)N3CC[C@@]4(CCN(C(=O)CC(C)(C)C(=O)O)C4)C3)nc12` [Compound 707, 2,2-dimethyl-4-[(5R)-2-[8-methyl-6-[(3R)-3-methyl-3-phenyl-pyrrolidin-1-yl]-[1,2,4]triazolo[1,5-a]pyridine-2-carbonyl]-2,7-diazaspiro[4.4]nonan-7-yl]-4-oxo-butanoic acid], “***** (>2.5° C.=*****)”; for `Cc1cc(N2CCC(C)(n3ccc(C(F)F)n3)C2)cn2nc(C(=O)N3CC[C@@]4(CCN(c5cccc(C(=O)O)n5)C4)C3)nc12` (stereo partly drawn) [Compound 735, 6-[(5R)-2-[6-[3-[3-(difluoromethyl)pyrazol-1-yl]-3-methyl-pyrrolidin-1-yl]-8-methyl-[1,2,4]triazolo[1,5-a]pyridine-2-carbonyl]-2,7-diazaspiro[4.4]nonan-7-yl]pyridine-2-carboxylic acid], “**** (>1.5-2.5° C.=****)”.
Same read-out and setting: then `CCS(=O)(=O)NCC12COC(c3nc4c(C)cc(N5CC[C@](C)(c6ccccc6)C5)cn4n3)(C1)C2CO` (stereo partly drawn) [Compound 583, N-((5-(hydroxymethyl)-1-(8-methyl-6-((R)-3-methyl-3-phenylpyrrolidin-1-yl)-[1,2,4]triazolo[1,5-a]pyridin-2-yl)-2-oxabicyclo[2.1.1]hexan-4-yl)methyl)ethanesulfonamide], with “***** (>2.5° C.=*****)”.
For `Cc1cc(N2CC[C@](C)(c3ccccc3)C2)cn2nc(C(=O)NC3CC4(CCN4c4cccc(C(=O)O)n4)C3)nc12` (some centres unmarked) [Compound 667], the DSF entry is “***** (>2.5° C.=*****)”.
Still for that read-out and setting: then `Cc1cc(N2CC[C@](C)(c3ccccc3)C2)cn2nc(C(=O)N3CCCN(c4ccc(C(=O)O)cn4)CC3)nc12` [Compound 694], with “***** (>2.5° C.=*****)”; and `Cc1cc(N2CC[C@](C)(c3ccccc3)C2)cn2nc(C(=O)N3CC[C@@]4(CCN(c5cc(C(=O)O)ccn5)C4)C3)nc12` [Compound 714], with “***** (>2.5° C.=*****)”; and `Cc1cc(N2CC[C@](C)(c3ccccc3)C2)cn2nc(C34CC(CO3)C4COC3CC4(CNC4)C3)nc12` (some centres unmarked) [Compound 501], with “***** (>2.5° C.=*****)”.
On the same count and under the same terms, for `Cc1cc(N2CC[C@](C)(c3cccc(F)c3)C2)cn2nc(C34CC(CO3)C4N3CC4(CC4)NC3=O)nc12` (stereo partly drawn) [Compound 507, 6-(1-(6-((R)-3-(3-fluorophenyl)-3-methylpyrrolidin-1-yl)-8-methyl-[1,2,4]triazolo[1,5-a]pyridin-2-yl)-2-oxabicyclo[2.1.1]hexan-5-yl)-4,6-diazaspiro[2.4]heptan-5-one] the value was “***** (>2.5° C.=*****)”; for `Cc1cc(N2CC[C@](C)(n3ccc(C(F)(F)F)n3)C2)cn2nc(C(=O)N3CC[C@@]4(CCN(c5cccc(C(=O)O)n5)C4)C3)nc12` [Compound 742], “***** (>2.5° C.=*****)”.
